Test results published in patent US5540931A, “Methods for inducing site-specific immunosuppression and compositions of site specific immunosuppressants” (Hewitt; Charles W., priority 1994, dated 1996).

Legend:
[1] = test system: mixed lymphocyte responses; assay: In vitro site-specific mixed lymphocyte response; format: cell-based; details: FIGS. 14 A and B
[2] = test system: contact hypersensitivity reactions of skin tissue; details: topical
From the text: Rapamycin (0.01%), cyclosporine (0.1%), and rapamycin-cyclosporine (0.01%/0.1%) combined formulations, were applied in a trinary drug delivery system consisting of 1,2 propanediol, diethylene glycol monoethyl ether, and a glyceryl caprylate/caprate polyethylene glycol complex.
To further elaborate, rapamycin (0.001%), cyclosporine (0.01%), and rapamycin-cyclosporine (0.001%/0.01%) combined formulations, were applied in a trinary drug delivery system consisting of 1,2 propanediol, diethylene glycol monoethyl ether, and a glyceryl caprylate/caprate polyethylene glycol complex (6:3:1).

CO[C@H]1C[C@@H]2CC[C@@H](C)[C@@](O)(O2)C(=O)C(=O)N2CCCC[C@H]2C(=O)O[C@H]([C@H](C)C[C@@H]2CC[C@@H](O)[C@H](OC)C2)CC(=O)[C@H](C)/C=C(\C)[C@@H](O)[C@@H](OC)C(=O)[C@H](C)C[C@H](C)/C=C/C=C/C=C/1C [Rapamycin, rapamycin]
site-specific immune suppression of primary or activated cellular immune responses ([1]; agent alone): provided potent site-specific immune suppression
efficacy by inflammatory immune phase (early versus late) ([1]; local application): surprisingly efficacious with local application during both late and early inflammatory immune phases
efficacy by local inflammatory immune phase (early versus late) ([2]; contact dermatitis model): particularly efficacious during the late local inflammatory-immune phase
site-specific immune suppression in contact dermatitis at low concentrations ([2]; rapamycin 0.001%, cyclosporine 0.01%, combination 0.001%/0.01%, trinary vehicle (6:3:1)): provided surprising site-specific immune suppression
local inflammatory/immune response in contact hypersensitivity ([2]; rapamycin 0.01%, cyclosporine 0.1%, combination 0.01%/0.1%, 1,2 propanediol/Transcutol/Labrasol vehicle, FIG. 13B): inhibited local inflammatory/immune responses
